Test results as given in patent publication US5405598A, “Sensitizing agents for use in boron neutron capture therapy” (priority 1992, dated 1995).
pEC50: −log10 of the molar value.

What was measured:
hamster V-79 cells = details: when irradiated with low energy neutrons; cited from earlier work
[1] = tested on: human immunodeficiency viruses (HIV); details: racemic BCH-189; FTC; cited from earlier work
Hepatitis B virus (HBV) = details: racemic BCH-189; FTC; cited from earlier work
malignant cells = details: under both euoxic and hypoxic conditions; cited from earlier work
[2] = mice, radiolabeled; cited from earlier work
[3] = mice; cited from earlier work
CEM = test: Cytotoxicity in CEM cells; type: cell-based; details: On day 6; read-out: CEM IC50 (cytotoxicity)
Excerpt: (§1) Biological methods are described in Schinazi et al, Antimicrob. Agents Chemother., vol. 34, pp. 1061-1067, (1990).

Vero = test: Cytotoxicity in Vero cells; type: cell-based; details: On day 3; read-out: Vero IC50 (cytotoxicity)
Excerpt: as §1

PBM = test: Cytotoxicity in PBM cells; type: cell-based, human; details: On day 6; read-out: PBM IC50 (cytotoxicity)
Excerpt: as §1

HIV-1 (strain LAV) = test: Anti-HIV-1 activity in human PBM cells; type: cell-based; details: On day 6, in human PBM cells, without neutrons
Excerpt: Thus, these compounds have antiviral activity in the absence of neutrons.
as §1

O=c1[nH]c(=O)n([C@H]2C[C@H](O)[C@@H](CO)O2)cc1B(O)O [DBDU, 5-dihydroxyboryl-2'-deoxyuridine]
destruction of hamster V-79 cells (hamster V-79 cells): destroy hamster V-79 cells

Nc1nc(=O)n([C@H]2CS[C@@H](CO)O2)cc1F [FTC, 2', 3'-dideoxy-5-fluoro-3'-thiacytidine]
viability as anti-HIV agent [1]: demonstrated
viability as anti-HBV agent (Hepatitis B virus (HBV)): demonstrated

Nc1ccn([C@H]2CS[C@@H](CO)O2)c(=O)n1 (racemic) [BCH-189, 2', 3'-dideoxy-3'-thiacytidine]
viability as anti-HIV agent [1]: demonstrated
viability as anti-HBV agent (Hepatitis B virus (HBV)): demonstrated

Cc1cc(OP(=O)(O)O)c2cc(I)ccc2c1OP(=O)(O)O [6-I-MNDP, 6-iodo-2-methyl-1,4-naphthoquinol bis(diammonium phosphate)]
uptake into malignant cells relative to normal cells (malignant cells): 15-20 fold
uptake in tumor tissues [2]: high uptake
uptake into critical radiosensitive tissues, such as bone-marrow, colon, and lung [2]: low uptake
metabolic stability of the halogen-carbon bond [3]: metabolically stable

5-Carboranyl-2',3'-dideoxy-3'-thiauridine
CC50 (CEM): 37.9 µM
CC50 (Vero): 34.2 µM
CC50 (PBM): > 100 µM
pEC50 (HIV-1 (strain LAV)): 4.92

5'-O-Butyryl-5-carboranyl-3'-thia-2',3'-dideoxyuridine
pEC50 (HIV-1 (strain LAV)): 5.19
